Reference: patent US10919943B2, “Mutant proteins enabling agrochemical control of plant gene expression” (The Regents of the University of California, priority 2016, dated 2021)

B1: PYR1*^-MANDI: PYR1 mutant with 9 mutations, most sensitive to mandipropamid (protein, listed as Arabidopsis thaliana)
chain: MPSELTPEERSELKNSIAEFHTYQLDPGSCSSLHAQRIHAPPELVWSIVRRFDKPQTHRHFIKSCSVEQNFEMRVGCTRDIIVISGLPANTSTERLDILDDERRVTGASIIGGEHRLTNYKGVTTVHRFEKENRIWTVVLESYVVDMPEGNSEDDTRIVVDDVVKLNLQKLATVAEAMARNSGDGSGSQVT

What was measured:
[1] = system: 35S::GFP-cyt-HAB1* and 35S::nuc-PYR1*^-MANDI; assay: Mandipropamid control of protein nuclear localization, transient co-expression, confocal microscopy; assay type: in vivo, N. benthamiana; conditions: 50 μM mandipropamid, 24 hours; FIG. 13
Excerpt: To test this idea, we created a nuclear localized version of PYR1*^-MANDI (SEQ ID NO:32) and a cytoplasmically localized GFP-HAB1*(SEQ ID NO:33), co-expressed the two components in N. benthamiana, and subsequently examined the localization of GFP-HAB1* in response to mandipropamid using confocal microscopy. To accomplish this, we cloned PYR1*^-MANDI into the yeast two hybrid vector pAD, generating a GAL4 activation domain fusion to PYR1*^-MANDI. The GAL4 activation domain present in pAD contains a synthetic SV40 nuclear localization signal (NLS) at its N-terminus. […]
To characterize these components, 35S::GFP-cyt-HAB1* and 35S::nuc-PYR1*^-MANDI were transiently co-expressed in N. benthamiana, as described above, and plants treated with a mock or mandipropamid solution (FIG. 13). […] The leaf tissue was scanned manually by epi-fluorescence to identify patches of GFP^+ cells and then observed by spinning disk confocal microscopy, collecting ˜10 micron deep sections that spanned the entire epidermal cell layer. […] Fluorescence imaging was done using a custom built spinning disk system (Solamere Technology, Inc) with a Yokagawa W1 spinning disk (Yokagawa), EM-CCD camera (Hamamatsu 9100c) and a Nikon Eclipse TE (Nikon) inverted stand. […]

wild type HAB1 = molecular target: T1, wild type HAB1 (Arabidopsis thaliana, UniProt O49686+Q9CAJ0, A160V/F108A/F159V/K59R/M158I/S122G/T162D/V81I/Y58H); assay: In vitro pull down assay with recombinant 6×-His receptor and GST-PP2C; assay type: binding; conditions: 10 μM mandipropamid; FIG. 8
T1 construct: made in house; host or cells: E. coli BL21 [DE3]pLysS
Excerpt: To characterize the orthogonal orthogonal module biochemically, we produced recombinant forms of 6×-His-PYR1*^-MANDI, 6×-His-PYR1, GST-HAB1*, and GST-HAB1 in E. coli, as described above, and tested wild type and orthogonal receptors for their ability to inhibit GST-HAB1 activity in vitro, as well as their physical interactions with one another using pull-down assays. To characterize PYR1*^-MANDI and HAB1* in vitro, we cloned PYR1*^-MANDI into pET28 to generate a 6×-His tagged receptor and cloned HAB1* into pGEX-4T-1 to create a GST-fusion protein. Recombinant 6×-His-PYR1*^-MANDI and GST-HAB1* were prepared, as described above in example 1C, and used in experiments with previously prepared 6×-His-PYR1 and GST-HAB1. To conduct pull down assays, the specified recombinant receptor and PP2C (20 and 140 μg respectively), were combined in 500 μl PP2C assay buffer (100 mM Tris-HCl (pH 7.9), 100 mM NaCl, 1 mM MnCl2, 1% 13-ME and 0.3% BSA) containing either 10 μM ABA, 10 μM mandipropamid or 1% DMSO carrier solvent as a negative control. The final protein concentrations in the reactions are 1.6 μM receptor and 3.4 μM PP2C. The reactions were incubated for 90 minutes at room temperature (RT) and 20 μl of PrepEase (USB) His-tagged protein purification resin (20 mg) was added. The resin and reaction mixtures were incubated for 30 minutes at RT with gentle shaking at 5 minute intervals. The resin was washed five times and 100 μl of SDS-PAGE buffer was added and boiled for 5 minutes. After centrifugation 20 μl of supernatant was analyzed by SDS-PAGE.

T1 sequence (Q9CAJ0 23-511, one chain of several): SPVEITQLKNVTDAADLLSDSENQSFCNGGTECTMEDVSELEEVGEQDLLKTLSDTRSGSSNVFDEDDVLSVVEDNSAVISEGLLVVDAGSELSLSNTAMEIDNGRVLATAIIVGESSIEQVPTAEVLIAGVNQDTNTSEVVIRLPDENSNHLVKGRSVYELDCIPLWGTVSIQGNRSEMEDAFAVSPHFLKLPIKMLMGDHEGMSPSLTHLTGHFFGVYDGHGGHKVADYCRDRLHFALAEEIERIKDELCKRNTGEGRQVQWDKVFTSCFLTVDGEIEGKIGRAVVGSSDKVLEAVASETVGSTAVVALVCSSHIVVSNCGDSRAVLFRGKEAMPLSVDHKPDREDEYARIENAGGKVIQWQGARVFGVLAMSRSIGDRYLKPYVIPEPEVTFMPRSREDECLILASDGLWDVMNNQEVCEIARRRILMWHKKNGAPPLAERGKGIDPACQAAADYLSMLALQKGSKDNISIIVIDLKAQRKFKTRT

Molecule	localization of GFP-cyt-HAB1* [1]	binding to wild type HAB1 (wild type HAB1)
C#CCOc1ccc(CCNC(=O)C(OCC#C)c2ccc(Cl)cc2)cc1OC (centres unmarked) [mandipropamid]	predominantly nuclear localization pattern	–
B1	–	can bind
